# Data reported in paper PMC3968014, “Design and Synthesis of a Library of Lead-Like 2,4-Bisheterocyclic Substituted Thiophenes as Selective Dyrk/Clk Inhibitors” (PLoS ONE, 2014).
# Tests used:
# Format in all cases: biochemical
# Conditions in all cases: 5 µM inhibitor
# [1] = target: T1, HIPK4 (Homo sapiens, UniProt Q8NE63); test: Selectivity panel HIPK4
# T1 construct: purchased Life Technologies (Invitrogen SelectScreen); Dyrk1A, Dyrk2 and CK2α in-house or gifts
# [2] = target: T2, PIK3CA/PIK3R1 (Homo sapiens, UniProt P42336); test: Selectivity panel PIK3CA/PIK3R1
# T2 construct: purchased Life Technologies (Invitrogen SelectScreen); Dyrk1A, Dyrk2 and CK2α in-house or gifts
# [3] = target: T3, PKN1 (PRK1) (Homo sapiens, UniProt Q16512); test: Selectivity panel PKN1
# T3 construct: purchased Life Technologies (Invitrogen SelectScreen); Dyrk1A, Dyrk2 and CK2α in-house or gifts
# [4] = target: T4, MINK1 (Homo sapiens, UniProt Q8N4C8); test: Selectivity panel MINK1
# T4 construct: purchased Life Technologies (Invitrogen SelectScreen); Dyrk1A, Dyrk2 and CK2α in-house or gifts
# [5] = target: T5, MAP2K6 (MKK6) (Homo sapiens, UniProt P52564); test: Selectivity panel MAP2K6
# T5 construct: purchased Life Technologies (Invitrogen SelectScreen); Dyrk1A, Dyrk2 and CK2α in-house or gifts
# [6] = target: T6, AURKA (Aurora A) (Homo sapiens, UniProt O14965); test: Selectivity panel AURKA
# T6 construct: purchased Life Technologies (Invitrogen SelectScreen); Dyrk1A, Dyrk2 and CK2α in-house or gifts
# [7] = target: T7, RPS6KA1 (RSK1) (Homo sapiens, UniProt Q15418); test: Selectivity panel RPS6KA1
# T7 construct: purchased Life Technologies (Invitrogen SelectScreen); Dyrk1A, Dyrk2 and CK2α in-house or gifts
# [8] = target: T8, CLK4 (Homo sapiens, UniProt Q9HAZ1); test: Selectivity panel CLK4
# T8 construct: purchased Life Technologies (Invitrogen SelectScreen); Dyrk1A, Dyrk2 and CK2α in-house or gifts
# [9] = target: T9, MAPK12 (p38 gamma, ERK3) (Homo sapiens, UniProt P53778); test: Selectivity panel MAPK12
# T9 construct: purchased Life Technologies (Invitrogen SelectScreen); Dyrk1A, Dyrk2 and CK2α in-house or gifts
# [10] = target: T10, STK23 (MSSK1) (Homo sapiens, UniProt Q9UPE1); test: Selectivity panel STK23
# T10 construct: purchased Life Technologies (Invitrogen SelectScreen); Dyrk1A, Dyrk2 and CK2α in-house or gifts
# [11] = target: T11, BTK (Homo sapiens, UniProt Q06187); test: Selectivity panel BTK
# T11 construct: purchased Life Technologies (Invitrogen SelectScreen); Dyrk1A, Dyrk2 and CK2α in-house or gifts
# [12] = target: T12, IGF1R (Homo sapiens, UniProt P08069); test: Selectivity panel IGF1R
# T12 construct: purchased Life Technologies (Invitrogen SelectScreen); Dyrk1A, Dyrk2 and CK2α in-house or gifts
# [13] = target: T13, MAPK1 (ERK2) (Homo sapiens, UniProt P28482); test: Selectivity panel MAPK1
# T13 construct: purchased Life Technologies (Invitrogen SelectScreen); Dyrk1A, Dyrk2 and CK2α in-house or gifts
# [14] = target: T14, IRAK4 (Homo sapiens, UniProt Q9NWZ3); test: Selectivity panel IRAK4
# T14 construct: purchased Life Technologies (Invitrogen SelectScreen); Dyrk1A, Dyrk2 and CK2α in-house or gifts
# [15] = target: T15, CHEK1 (CHK1) (Homo sapiens, UniProt O14757); test: Selectivity panel CHEK1
# T15 construct: purchased Life Technologies (Invitrogen SelectScreen); Dyrk1A, Dyrk2 and CK2α in-house or gifts
# [16] = target: T16, KDR (VEGFR2) (Homo sapiens, UniProt P35968); test: Selectivity panel KDR
# T16 construct: purchased Life Technologies (Invitrogen SelectScreen); Dyrk1A, Dyrk2 and CK2α in-house or gifts
# [17] = target: T17, PIM2 (Homo sapiens, UniProt Q9P1W9); test: Selectivity panel PIM2
# T17 construct: purchased Life Technologies (Invitrogen SelectScreen); Dyrk1A, Dyrk2 and CK2α in-house or gifts
# [18] = target: T18, JAK2 (Homo sapiens, UniProt O60674); test: Selectivity panel JAK2
# T18 construct: purchased Life Technologies (Invitrogen SelectScreen); Dyrk1A, Dyrk2 and CK2α in-house or gifts
# [19] = target: T19, FYN (Homo sapiens, UniProt P06241); test: Selectivity panel FYN
# T19 construct: purchased Life Technologies (Invitrogen SelectScreen); Dyrk1A, Dyrk2 and CK2α in-house or gifts
# [20] = target: T20, STK22B (TSSK2) (Homo sapiens, UniProt Q96PF2); test: Selectivity panel STK22B
# T20 construct: purchased Life Technologies (Invitrogen SelectScreen); Dyrk1A, Dyrk2 and CK2α in-house or gifts
# [21] = target: T21, SRC (Homo sapiens, UniProt P12931); test: Selectivity panel SRC
# T21 construct: purchased Life Technologies (Invitrogen SelectScreen); Dyrk1A, Dyrk2 and CK2α in-house or gifts
# [22] = target: T22, RIPK2 (Homo sapiens, UniProt O43353); test: Selectivity panel RIPK2
# T22 construct: purchased Life Technologies (Invitrogen SelectScreen); Dyrk1A, Dyrk2 and CK2α in-house or gifts
# [23] = target: T23, MAPK9 (JNK2) (Homo sapiens, UniProt P45984); test: Selectivity panel MAPK9
# T23 construct: purchased Life Technologies (Invitrogen SelectScreen); Dyrk1A, Dyrk2 and CK2α in-house or gifts
# [24] = target: T24, MAP2K1 (MEK1) (Homo sapiens, UniProt Q02750); test: Selectivity panel MAP2K1
# T24 construct: purchased Life Technologies (Invitrogen SelectScreen); Dyrk1A, Dyrk2 and CK2α in-house or gifts
# [25] = target: T25, LIMK1 (Homo sapiens, UniProt P53667); test: Selectivity panel LIMK1
# T25 construct: purchased Life Technologies (Invitrogen SelectScreen); Dyrk1A, Dyrk2 and CK2α in-house or gifts
# [26] = target: T26, FGFR3 (Homo sapiens, UniProt P22607); test: Selectivity panel FGFR3
# T26 construct: purchased Life Technologies (Invitrogen SelectScreen); Dyrk1A, Dyrk2 and CK2α in-house or gifts
# [27] = target: T27, TBK1 (Homo sapiens, UniProt Q9UHD2); test: Selectivity panel TBK1
# T27 construct: purchased Life Technologies (Invitrogen SelectScreen); Dyrk1A, Dyrk2 and CK2α in-house or gifts
# [28] = target: T28, PAK4 (Homo sapiens, UniProt O96013); test: Selectivity panel PAK4
# T28 construct: purchased Life Technologies (Invitrogen SelectScreen); Dyrk1A, Dyrk2 and CK2α in-house or gifts
# [29] = target: T29, NEK7 (Homo sapiens, UniProt Q8TDX7); test: Selectivity panel NEK7
# T29 construct: purchased Life Technologies (Invitrogen SelectScreen); Dyrk1A, Dyrk2 and CK2α in-house or gifts
# [30] = target: T30, WEE1 (Homo sapiens, UniProt P30291); test: Selectivity panel WEE1
# T30 construct: purchased Life Technologies (Invitrogen SelectScreen); Dyrk1A, Dyrk2 and CK2α in-house or gifts
# [31] = target: T31, RAF1 (cRAF) Y340D Y341D (Homo sapiens, UniProt P04049, Y340D/Y341D); test: Selectivity panel RAF1
# T31 construct: purchased Life Technologies (Invitrogen SelectScreen); Dyrk1A, Dyrk2 and CK2α in-house or gifts
# [32] = target: T32, MAP3K5 (ASK1) (Homo sapiens, UniProt Q99683); test: Selectivity panel MAP3K5
# T32 construct: purchased Life Technologies (Invitrogen SelectScreen); Dyrk1A, Dyrk2 and CK2α in-house or gifts
# [33] = target: T33, RPS6KB1 (p70S6K) (Homo sapiens, UniProt P23443); test: Selectivity panel RPS6KB1
# T33 construct: purchased Life Technologies (Invitrogen SelectScreen); Dyrk1A, Dyrk2 and CK2α in-house or gifts
# [34] = target: T34, MAP3K14 (NIK) (Homo sapiens, UniProt Q99558); test: Selectivity panel MAP3K14
# T34 construct: purchased Life Technologies (Invitrogen SelectScreen); Dyrk1A, Dyrk2 and CK2α in-house or gifts
# [35] = target: T35, NEK1 (Homo sapiens, UniProt Q96PY6); test: Selectivity panel NEK1
# T35 construct: purchased Life Technologies (Invitrogen SelectScreen); Dyrk1A, Dyrk2 and CK2α in-house or gifts
# [36] = target: T36, PDK1 (Homo sapiens, UniProt O15530); test: Selectivity panel PDK1
# T36 construct: purchased Life Technologies (Invitrogen SelectScreen); Dyrk1A, Dyrk2 and CK2α in-house or gifts
# [37] = target: T37, AKT1 (PKB alpha) (Homo sapiens, UniProt P31749); test: Selectivity panel AKT1
# T37 construct: purchased Life Technologies (Invitrogen SelectScreen); Dyrk1A, Dyrk2 and CK2α in-house or gifts
# [38] = target: T38, DYRK3 (Homo sapiens, UniProt O43781); test: Selectivity panel DYRK3
# T38 construct: purchased Life Technologies (Invitrogen SelectScreen); Dyrk1A, Dyrk2 and CK2α in-house or gifts
# [39] = target: T39, PLK2/SNK (Homo sapiens, UniProt Q9NYY3); test: Selectivity panel PLK2/SNK
# T39 construct: purchased Life Technologies (Invitrogen SelectScreen); Dyrk1A, Dyrk2 and CK2α in-house or gifts
# [40] = target: T40, DAPK3 (ZIPK) (Homo sapiens, UniProt O43293); test: Selectivity panel DAPK3
# T40 construct: purchased Life Technologies (Invitrogen SelectScreen); Dyrk1A, Dyrk2 and CK2α in-house or gifts
# [41] = target: T41, CDK1/cyclin B (Homo sapiens, UniProt P06493); test: Selectivity panel CDK1/cyclin B
# T41 construct: purchased Life Technologies (Invitrogen SelectScreen); Dyrk1A, Dyrk2 and CK2α in-house or gifts
# [42] = target: T42, CSNK1G1 (CK1 gamma 1) (Homo sapiens, UniProt Q9HCP0); test: Selectivity panel CSNK1G1
# T42 construct: purchased Life Technologies (Invitrogen SelectScreen); Dyrk1A, Dyrk2 and CK2α in-house or gifts
# T41 sequence (P06493 whole entry): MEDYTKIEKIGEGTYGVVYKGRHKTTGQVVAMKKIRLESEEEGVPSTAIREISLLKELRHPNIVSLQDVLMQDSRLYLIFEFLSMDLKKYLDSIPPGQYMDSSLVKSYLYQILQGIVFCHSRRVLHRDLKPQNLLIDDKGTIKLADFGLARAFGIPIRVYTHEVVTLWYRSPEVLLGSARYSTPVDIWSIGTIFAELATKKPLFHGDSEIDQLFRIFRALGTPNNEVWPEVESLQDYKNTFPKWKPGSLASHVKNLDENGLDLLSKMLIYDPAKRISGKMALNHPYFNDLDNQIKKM
# T41 sequence (P14635 whole entry partner): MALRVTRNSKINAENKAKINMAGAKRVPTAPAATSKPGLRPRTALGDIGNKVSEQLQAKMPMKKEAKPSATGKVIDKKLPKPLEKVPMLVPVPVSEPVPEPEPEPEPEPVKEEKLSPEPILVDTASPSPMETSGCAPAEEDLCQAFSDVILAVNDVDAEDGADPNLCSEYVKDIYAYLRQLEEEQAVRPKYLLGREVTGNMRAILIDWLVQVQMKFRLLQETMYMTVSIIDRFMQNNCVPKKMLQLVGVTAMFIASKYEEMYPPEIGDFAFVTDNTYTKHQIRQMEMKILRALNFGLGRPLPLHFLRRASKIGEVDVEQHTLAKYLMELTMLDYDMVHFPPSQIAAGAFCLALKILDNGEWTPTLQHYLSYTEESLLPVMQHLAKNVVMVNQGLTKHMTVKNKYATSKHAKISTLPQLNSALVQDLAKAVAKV
# T8 sequence (Q9HAZ1 whole entry): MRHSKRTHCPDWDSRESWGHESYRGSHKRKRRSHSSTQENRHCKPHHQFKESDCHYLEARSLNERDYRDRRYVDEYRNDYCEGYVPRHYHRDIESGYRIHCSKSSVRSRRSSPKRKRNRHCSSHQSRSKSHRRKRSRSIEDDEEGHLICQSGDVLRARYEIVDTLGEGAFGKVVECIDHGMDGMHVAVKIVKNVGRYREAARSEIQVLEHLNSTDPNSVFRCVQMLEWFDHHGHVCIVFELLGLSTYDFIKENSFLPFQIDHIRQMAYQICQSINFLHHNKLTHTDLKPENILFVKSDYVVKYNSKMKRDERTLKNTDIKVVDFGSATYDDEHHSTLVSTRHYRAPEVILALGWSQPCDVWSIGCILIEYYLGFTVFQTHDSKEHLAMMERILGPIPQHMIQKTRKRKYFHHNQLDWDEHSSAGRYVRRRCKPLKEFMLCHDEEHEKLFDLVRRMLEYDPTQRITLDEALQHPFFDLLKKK
# T24 sequence (Q02750 whole entry): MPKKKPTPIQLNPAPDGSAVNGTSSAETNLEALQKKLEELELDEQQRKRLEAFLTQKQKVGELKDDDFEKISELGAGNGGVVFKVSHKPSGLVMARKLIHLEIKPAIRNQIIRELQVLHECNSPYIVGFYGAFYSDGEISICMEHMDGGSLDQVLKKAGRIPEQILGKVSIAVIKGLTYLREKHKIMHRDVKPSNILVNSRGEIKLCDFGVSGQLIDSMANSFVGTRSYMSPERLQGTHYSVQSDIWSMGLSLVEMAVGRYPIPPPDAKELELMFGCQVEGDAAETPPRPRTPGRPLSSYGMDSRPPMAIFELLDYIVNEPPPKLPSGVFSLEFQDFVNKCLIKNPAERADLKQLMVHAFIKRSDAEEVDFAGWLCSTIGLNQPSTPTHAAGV
# T14 sequence (Q9NWZ3 whole entry): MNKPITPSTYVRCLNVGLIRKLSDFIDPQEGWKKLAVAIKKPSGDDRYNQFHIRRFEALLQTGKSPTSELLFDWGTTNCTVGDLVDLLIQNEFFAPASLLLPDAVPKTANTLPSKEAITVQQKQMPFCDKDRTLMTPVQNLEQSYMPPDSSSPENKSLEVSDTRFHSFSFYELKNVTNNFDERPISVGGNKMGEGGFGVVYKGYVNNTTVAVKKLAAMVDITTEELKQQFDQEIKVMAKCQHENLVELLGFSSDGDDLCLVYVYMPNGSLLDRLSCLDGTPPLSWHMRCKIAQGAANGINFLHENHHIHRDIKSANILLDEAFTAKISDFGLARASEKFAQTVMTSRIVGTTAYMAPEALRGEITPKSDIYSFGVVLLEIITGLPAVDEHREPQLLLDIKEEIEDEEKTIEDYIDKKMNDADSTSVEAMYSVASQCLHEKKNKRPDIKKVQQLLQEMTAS
# T22 sequence (O43353 whole entry): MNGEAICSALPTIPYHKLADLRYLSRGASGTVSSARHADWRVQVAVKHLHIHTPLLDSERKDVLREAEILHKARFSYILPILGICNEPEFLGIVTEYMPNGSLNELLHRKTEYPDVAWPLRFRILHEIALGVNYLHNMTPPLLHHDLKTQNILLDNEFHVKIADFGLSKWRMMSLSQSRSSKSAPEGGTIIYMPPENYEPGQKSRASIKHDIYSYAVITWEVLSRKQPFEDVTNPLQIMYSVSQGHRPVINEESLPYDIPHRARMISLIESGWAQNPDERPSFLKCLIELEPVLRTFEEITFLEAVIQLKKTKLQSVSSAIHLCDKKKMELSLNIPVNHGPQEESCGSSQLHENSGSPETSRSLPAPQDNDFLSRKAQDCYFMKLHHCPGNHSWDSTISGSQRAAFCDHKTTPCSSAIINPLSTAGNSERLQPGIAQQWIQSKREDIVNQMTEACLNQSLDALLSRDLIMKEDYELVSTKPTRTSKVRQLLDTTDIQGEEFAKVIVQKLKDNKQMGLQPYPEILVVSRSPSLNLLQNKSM
# T27 sequence (Q9UHD2 whole entry): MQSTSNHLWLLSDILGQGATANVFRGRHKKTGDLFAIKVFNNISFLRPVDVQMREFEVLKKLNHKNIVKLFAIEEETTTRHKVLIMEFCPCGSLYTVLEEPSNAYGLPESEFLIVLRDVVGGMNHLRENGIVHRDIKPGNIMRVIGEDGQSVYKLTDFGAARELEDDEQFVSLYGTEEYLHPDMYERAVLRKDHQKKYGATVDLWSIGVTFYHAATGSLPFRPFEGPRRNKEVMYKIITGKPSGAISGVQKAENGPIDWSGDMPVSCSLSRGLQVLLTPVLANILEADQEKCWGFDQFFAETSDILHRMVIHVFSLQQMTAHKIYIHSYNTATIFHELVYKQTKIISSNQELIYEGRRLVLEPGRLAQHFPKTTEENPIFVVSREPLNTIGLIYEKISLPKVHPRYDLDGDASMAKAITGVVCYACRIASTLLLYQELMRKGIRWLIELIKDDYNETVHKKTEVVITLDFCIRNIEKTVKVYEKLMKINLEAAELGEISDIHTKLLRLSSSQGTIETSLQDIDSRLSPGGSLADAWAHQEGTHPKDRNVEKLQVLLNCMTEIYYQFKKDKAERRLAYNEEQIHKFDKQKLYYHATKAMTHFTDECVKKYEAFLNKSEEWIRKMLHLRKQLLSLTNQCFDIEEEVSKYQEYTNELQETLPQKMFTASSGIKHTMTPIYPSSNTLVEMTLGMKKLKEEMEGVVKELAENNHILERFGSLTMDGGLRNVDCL
# T28 sequence (O96013 whole entry): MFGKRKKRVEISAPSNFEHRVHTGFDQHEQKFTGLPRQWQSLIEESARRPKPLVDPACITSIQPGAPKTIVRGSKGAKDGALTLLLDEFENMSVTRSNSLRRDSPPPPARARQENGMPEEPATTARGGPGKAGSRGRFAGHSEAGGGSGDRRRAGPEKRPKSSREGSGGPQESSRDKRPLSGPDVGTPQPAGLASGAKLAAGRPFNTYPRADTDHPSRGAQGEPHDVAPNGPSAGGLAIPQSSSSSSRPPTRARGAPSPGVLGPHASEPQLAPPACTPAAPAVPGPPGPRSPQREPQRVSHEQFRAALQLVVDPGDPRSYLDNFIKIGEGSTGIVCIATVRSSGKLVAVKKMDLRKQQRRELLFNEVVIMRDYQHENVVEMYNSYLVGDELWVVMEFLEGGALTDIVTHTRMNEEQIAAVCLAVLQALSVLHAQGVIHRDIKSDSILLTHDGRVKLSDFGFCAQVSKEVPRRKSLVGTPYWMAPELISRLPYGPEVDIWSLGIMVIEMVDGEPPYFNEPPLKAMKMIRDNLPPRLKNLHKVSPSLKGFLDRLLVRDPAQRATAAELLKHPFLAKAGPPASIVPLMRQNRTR
# T10 sequence (Q9UPE1 whole entry): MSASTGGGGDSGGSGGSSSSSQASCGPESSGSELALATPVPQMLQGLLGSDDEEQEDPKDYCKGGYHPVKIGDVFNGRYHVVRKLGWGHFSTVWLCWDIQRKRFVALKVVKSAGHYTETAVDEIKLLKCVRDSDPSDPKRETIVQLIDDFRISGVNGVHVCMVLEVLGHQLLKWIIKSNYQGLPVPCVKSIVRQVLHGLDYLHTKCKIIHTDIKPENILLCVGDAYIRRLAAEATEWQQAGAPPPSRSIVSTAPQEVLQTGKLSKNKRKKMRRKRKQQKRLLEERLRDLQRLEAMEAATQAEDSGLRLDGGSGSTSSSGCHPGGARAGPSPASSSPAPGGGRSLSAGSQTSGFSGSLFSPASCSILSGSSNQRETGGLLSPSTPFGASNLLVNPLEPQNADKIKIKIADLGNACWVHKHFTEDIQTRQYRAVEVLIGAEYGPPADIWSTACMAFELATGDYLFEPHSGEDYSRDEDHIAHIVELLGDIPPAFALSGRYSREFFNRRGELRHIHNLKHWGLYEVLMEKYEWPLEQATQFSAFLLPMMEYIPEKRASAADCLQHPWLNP
# T37 sequence (P31749 whole entry): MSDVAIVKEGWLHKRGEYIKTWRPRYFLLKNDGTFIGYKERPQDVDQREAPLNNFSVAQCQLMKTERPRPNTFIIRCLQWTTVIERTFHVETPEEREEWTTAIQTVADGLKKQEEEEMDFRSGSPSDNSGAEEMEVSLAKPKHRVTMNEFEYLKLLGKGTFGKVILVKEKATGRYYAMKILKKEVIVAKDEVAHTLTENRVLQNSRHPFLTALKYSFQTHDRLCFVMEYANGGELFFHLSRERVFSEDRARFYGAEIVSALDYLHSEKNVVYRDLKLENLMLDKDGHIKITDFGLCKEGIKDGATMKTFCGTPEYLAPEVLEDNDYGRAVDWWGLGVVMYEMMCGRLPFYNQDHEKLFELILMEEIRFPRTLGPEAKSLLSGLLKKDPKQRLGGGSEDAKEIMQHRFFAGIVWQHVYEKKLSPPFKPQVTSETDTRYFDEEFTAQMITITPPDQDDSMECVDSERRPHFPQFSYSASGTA
structure (smiles),measurement,setting,value
"c1cncc(-c2csc(-c3cncs3)c2)c1 [Compound 48, 3-[5-(1,3-thiazol-5-yl)thiophen-3-yl]pyridine]",inhibition at 5 µM,[1],7%
same,inhibition at 5 µM,[2],12%
same,inhibition at 5 µM,[3],-10%
same,inhibition at 5 µM,[4],19%
same,inhibition at 5 µM,[5],7%
same,inhibition at 5 µM,[6],2%
same,inhibition at 5 µM,[7],4%
same,inhibition at 5 µM,[8],99%
same,inhibition at 5 µM,[9],3%
same,inhibition at 5 µM,[10],0%
same,inhibition at 5 µM,[11],15%
same,inhibition at 5 µM,[12],3%
same,inhibition at 5 µM,[13],1%
same,inhibition at 5 µM,[14],-11%
same,inhibition at 5 µM,[15],7%
same,inhibition at 5 µM,[16],10%
same,inhibition at 5 µM,[17],5%
same,inhibition at 5 µM,[18],-4%
same,inhibition at 5 µM,[19],0%
same,inhibition at 5 µM,[20],-2%
same,inhibition at 5 µM,[21],-4%
same,inhibition at 5 µM,[22],46%
same,inhibition at 5 µM,[23],-6%
same,inhibition at 5 µM,[24],2%
same,inhibition at 5 µM,[25],4%
same,inhibition at 5 µM,[26],-1%
same,inhibition at 5 µM,[27],8%
same,inhibition at 5 µM,[28],4%
same,inhibition at 5 µM,[29],-7%
same,inhibition at 5 µM,[30],10%
same,inhibition at 5 µM,[31],37%
same,inhibition at 5 µM,[32],6%
same,inhibition at 5 µM,[33],-4%
same,inhibition at 5 µM,[34],5%
same,inhibition at 5 µM,[35],-5%
same,inhibition at 5 µM,[36],7%
same,inhibition at 5 µM,[37],3%
same,inhibition at 5 µM,[38],69%
same,inhibition at 5 µM,[39],1%
same,inhibition at 5 µM,[40],-5%
same,inhibition at 5 µM,[41],42%
same,inhibition at 5 µM,[42],-3%
"c1cncc(-c2cc(-c3cncs3)cs2)c1 [Compound 29, 3-[4-(1,3-thiazol-5-yl)thiophen-2-yl]pyridine]",inhibition at 5 µM,[1],7%
same,inhibition at 5 µM,[2],21%
same,inhibition at 5 µM,[3],-16%
same,inhibition at 5 µM,[4],36%
same,inhibition at 5 µM,[5],5%
same,inhibition at 5 µM,[6],5%
same,inhibition at 5 µM,[7],2%
same,inhibition at 5 µM,[8],105%
same,inhibition at 5 µM,[9],-2%
same,inhibition at 5 µM,[10],2%
same,inhibition at 5 µM,[11],17%
same,inhibition at 5 µM,[12],1%
same,inhibition at 5 µM,[13],-6%
same,inhibition at 5 µM,[14],-7%
same,inhibition at 5 µM,[15],3%
same,inhibition at 5 µM,[16],6%
same,inhibition at 5 µM,[17],7%
same,inhibition at 5 µM,[18],-2%
same,inhibition at 5 µM,[19],-2%
same,inhibition at 5 µM,[20],-2%
same,inhibition at 5 µM,[21],-8%
same,inhibition at 5 µM,[22],53%
same,inhibition at 5 µM,[23],-6%
same,inhibition at 5 µM,[24],1%
same,inhibition at 5 µM,[25],11%
same,inhibition at 5 µM,[26],-2%
same,inhibition at 5 µM,[27],3%
same,inhibition at 5 µM,[28],3%
same,inhibition at 5 µM,[29],0%
same,inhibition at 5 µM,[30],17%
same,inhibition at 5 µM,[31],36%
same,inhibition at 5 µM,[32],4%
same,inhibition at 5 µM,[33],-2%
same,inhibition at 5 µM,[34],2%
same,inhibition at 5 µM,[35],3%
same,inhibition at 5 µM,[36],-10%
same,inhibition at 5 µM,[37],9%
same,inhibition at 5 µM,[38],66%
same,inhibition at 5 µM,[39],-3%
same,inhibition at 5 µM,[40],-1%
same,inhibition at 5 µM,[41],29%
same,inhibition at 5 µM,[42],-5%
